From ChEMBL document CHEMBL4229437, “Polyamine-containing etoposide derivatives as poisons of human type II topoisomerases: Differential effects on topoisomerase IIα and IIβ” (Bioorg Med Chem Lett, 2018) come the findings set out here.

The target in assay [1] is DNA topoisomerase 2-beta (Homo sapiens) (UniProt Q02880). As to the kind of experiment: Inhibition of recombinant human topoisomerase-2beta expressed in Saccharomyces cerevisiae assessed as stabilization of DNA-enzyme cleavage complex at 25 uM incubated for 6 mins followed by incubation in drug-free buffer by agarose gel electrophoresis method.
Chain of DNA topoisomerase 2-beta (Homo sapiens) (Q02880 whole entry): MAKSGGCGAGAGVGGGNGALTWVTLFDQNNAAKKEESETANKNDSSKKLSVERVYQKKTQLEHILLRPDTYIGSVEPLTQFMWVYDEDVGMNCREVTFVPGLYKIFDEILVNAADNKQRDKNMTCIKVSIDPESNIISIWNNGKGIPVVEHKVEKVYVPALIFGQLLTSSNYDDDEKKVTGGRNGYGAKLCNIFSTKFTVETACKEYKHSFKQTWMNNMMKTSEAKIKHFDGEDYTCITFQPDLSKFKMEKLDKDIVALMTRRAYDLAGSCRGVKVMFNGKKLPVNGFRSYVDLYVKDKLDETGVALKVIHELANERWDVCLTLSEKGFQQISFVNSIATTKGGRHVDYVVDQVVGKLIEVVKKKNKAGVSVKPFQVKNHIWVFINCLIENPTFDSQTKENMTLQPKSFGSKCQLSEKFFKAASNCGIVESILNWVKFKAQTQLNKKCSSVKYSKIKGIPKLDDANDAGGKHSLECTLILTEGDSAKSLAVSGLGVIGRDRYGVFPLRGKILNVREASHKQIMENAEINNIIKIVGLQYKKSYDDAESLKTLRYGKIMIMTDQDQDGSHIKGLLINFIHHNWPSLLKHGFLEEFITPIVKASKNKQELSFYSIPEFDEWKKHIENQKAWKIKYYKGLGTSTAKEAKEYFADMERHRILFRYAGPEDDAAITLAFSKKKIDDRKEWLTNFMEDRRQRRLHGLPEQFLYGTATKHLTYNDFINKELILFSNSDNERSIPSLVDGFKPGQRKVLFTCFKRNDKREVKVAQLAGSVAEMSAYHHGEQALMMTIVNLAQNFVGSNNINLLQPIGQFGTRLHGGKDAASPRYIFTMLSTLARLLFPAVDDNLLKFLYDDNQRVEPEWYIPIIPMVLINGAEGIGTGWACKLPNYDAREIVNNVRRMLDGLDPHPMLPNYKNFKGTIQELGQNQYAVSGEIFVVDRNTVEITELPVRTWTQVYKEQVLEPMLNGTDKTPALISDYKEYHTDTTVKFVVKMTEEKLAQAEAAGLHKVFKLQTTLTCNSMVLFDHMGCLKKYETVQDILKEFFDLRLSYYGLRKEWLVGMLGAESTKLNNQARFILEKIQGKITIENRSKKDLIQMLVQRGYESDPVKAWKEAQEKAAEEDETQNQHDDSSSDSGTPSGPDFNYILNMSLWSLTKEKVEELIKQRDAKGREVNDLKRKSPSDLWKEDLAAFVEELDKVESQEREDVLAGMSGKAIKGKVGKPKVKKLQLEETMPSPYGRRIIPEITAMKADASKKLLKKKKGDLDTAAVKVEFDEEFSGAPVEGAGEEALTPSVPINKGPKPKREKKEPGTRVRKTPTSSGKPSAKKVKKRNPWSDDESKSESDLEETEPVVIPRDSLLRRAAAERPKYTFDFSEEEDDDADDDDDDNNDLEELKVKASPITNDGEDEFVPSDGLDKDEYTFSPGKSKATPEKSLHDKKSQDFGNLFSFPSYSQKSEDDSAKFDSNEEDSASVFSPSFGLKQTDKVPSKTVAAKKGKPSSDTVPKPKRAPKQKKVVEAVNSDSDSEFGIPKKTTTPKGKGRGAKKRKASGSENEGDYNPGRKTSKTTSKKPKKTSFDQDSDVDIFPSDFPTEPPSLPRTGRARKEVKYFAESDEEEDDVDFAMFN
For assay [2] the target is unchanged. As to the kind of experiment: Inhibition of recombinant human topoisomerase-2beta expressed in Saccharomyces cerevisiae assessed as increase in double-stranded DNA cleavage at 25 uM using supercoiled pBR322 DNA as substrate incubated for 6 mins measured after 30 mins by ethidium bromide staining based agarose gel electrophoresis method relative to etoposide.

The target in assay [3] is DNA topoisomerase 2-alpha (Homo sapiens) (UniProt P11388). As to the kind of experiment: Inhibition of recombinant human topoisomerase-2alpha expressed in Saccharomyces cerevisiae assessed as increase in double-stranded DNA cleavage at 25 uM using supercoiled pBR322 DNA as substrate incubated for 6 mins measured after 30 mins by ethidium bromide staining based agarose gel electrophoresis method relative to etoposide.
Chain of DNA topoisomerase 2-alpha (Homo sapiens) (P11388 whole entry): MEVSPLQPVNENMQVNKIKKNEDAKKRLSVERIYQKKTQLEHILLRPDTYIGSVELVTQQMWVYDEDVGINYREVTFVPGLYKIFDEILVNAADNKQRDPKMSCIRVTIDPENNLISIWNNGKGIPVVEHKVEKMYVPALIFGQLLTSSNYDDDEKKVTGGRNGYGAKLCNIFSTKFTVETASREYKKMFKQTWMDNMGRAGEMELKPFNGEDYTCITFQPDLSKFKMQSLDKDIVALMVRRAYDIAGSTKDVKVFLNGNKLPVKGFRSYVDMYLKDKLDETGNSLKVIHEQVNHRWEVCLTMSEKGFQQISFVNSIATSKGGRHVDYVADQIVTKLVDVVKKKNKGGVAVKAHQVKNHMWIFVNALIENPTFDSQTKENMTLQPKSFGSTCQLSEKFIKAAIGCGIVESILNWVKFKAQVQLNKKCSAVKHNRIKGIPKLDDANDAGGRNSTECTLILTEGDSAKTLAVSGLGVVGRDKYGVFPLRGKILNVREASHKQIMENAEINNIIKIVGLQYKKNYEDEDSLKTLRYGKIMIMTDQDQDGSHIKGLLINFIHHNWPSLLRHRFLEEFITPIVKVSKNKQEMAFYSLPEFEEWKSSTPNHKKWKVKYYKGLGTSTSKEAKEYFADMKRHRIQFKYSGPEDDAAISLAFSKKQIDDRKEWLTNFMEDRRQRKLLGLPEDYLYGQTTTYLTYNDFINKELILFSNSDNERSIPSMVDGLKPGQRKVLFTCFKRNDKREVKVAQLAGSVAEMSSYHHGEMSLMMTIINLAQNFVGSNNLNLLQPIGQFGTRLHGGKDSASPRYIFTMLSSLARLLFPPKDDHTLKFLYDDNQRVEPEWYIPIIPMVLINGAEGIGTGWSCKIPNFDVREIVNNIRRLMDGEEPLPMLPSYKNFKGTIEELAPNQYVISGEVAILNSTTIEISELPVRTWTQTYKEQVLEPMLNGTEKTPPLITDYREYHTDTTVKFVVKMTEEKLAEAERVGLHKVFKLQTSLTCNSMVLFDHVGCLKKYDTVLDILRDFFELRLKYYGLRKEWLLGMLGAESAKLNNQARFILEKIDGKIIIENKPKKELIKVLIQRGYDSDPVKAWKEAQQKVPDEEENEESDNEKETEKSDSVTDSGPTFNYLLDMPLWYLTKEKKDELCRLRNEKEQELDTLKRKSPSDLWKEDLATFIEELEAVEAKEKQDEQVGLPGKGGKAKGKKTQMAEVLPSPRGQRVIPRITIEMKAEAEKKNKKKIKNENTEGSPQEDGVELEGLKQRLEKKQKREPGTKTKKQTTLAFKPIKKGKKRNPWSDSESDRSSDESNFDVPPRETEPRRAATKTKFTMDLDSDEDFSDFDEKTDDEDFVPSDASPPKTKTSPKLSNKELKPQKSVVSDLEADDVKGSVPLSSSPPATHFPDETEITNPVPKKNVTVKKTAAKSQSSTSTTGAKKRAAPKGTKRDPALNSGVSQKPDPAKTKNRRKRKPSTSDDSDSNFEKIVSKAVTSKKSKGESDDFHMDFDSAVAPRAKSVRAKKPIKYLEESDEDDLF

For assay [4], the target named is DNA topoisomerase 2-beta (Homo sapiens) (UniProt Q02880). As to the kind of experiment: Poison activity at recombinant human topoisomerase-2beta expressed in Saccharomyces cerevisiae assessed as stabilization of DNA-enzyme cleavage complex at 25 uM using supercoiled pBR322 DNA as substrate incubated for 6 mins measured after 30 mins by ethidium bromide staining based agarose gel electrophoresis method.

Assay [5] shares this target. As to the kind of experiment: Poison activity at recombinant human topoisomerase-2beta expressed in Saccharomyces cerevisiae assessed as stabilization of DNA-enzyme cleavage complex by measuring concentration required to generate 10% double-stranded DNA breaks using supercoiled pBR322 DNA as substrate incubated for 6 mins measured after 30 mins by ethidium bromide staining based agarose gel electrophoresis method.

Assay [6] shares this target. Nature of the assay: Inhibition of recombinant human topoisomerase-2beta expressed in Saccharomyces cerevisiae assessed as increase in total DNA cleavage at 25 uM using supercoiled pBR322 DNA as substrate incubated for 6 mins measured after 30 mins by ethidium bromide staining based agarose gel electrophoresis method relative to etoposide.
Assay [7] has as its target DNA topoisomerase 2-alpha (Homo sapiens) (UniProt P11388). As to the kind of experiment: Inhibition of recombinant human topoisomerase-2alpha expressed in Saccharomyces cerevisiae assessed as stabilization of DNA-enzyme cleavage complex at 25 uM incubated for […] followed by incubation in drug-free buffer by agarose gel electrophoresis method.
For assay [8] the target is unchanged. As to the kind of experiment: Poison activity at recombinant human topoisomerase-2alpha expressed in Saccharomyces cerevisiae assessed as stabilization of DNA-enzyme cleavage complex by measuring concentration required to generate 10% double-stranded DNA breaks using supercoiled pBR322 DNA as substrate incubated for 6 mins measured after 30 mins by ethidium bromide staining based agarose gel electrophoresis method.

For assay [9] the target is unchanged. Nature of the assay: Inhibition of recombinant human topoisomerase-2alpha expressed in Saccharomyces cerevisiae assessed as increase in total DNA cleavage at 25 uM using supercoiled pBR322 DNA as substrate incubated for 6 mins measured after 30 mins by ethidium bromide staining based agarose gel electrophoresis method relative to etoposide.
The target is the same in assay [10]. As to the kind of experiment: Poison activity at recombinant human topoisomerase-2alpha expressed in Saccharomyces cerevisiae assessed as stabilization of DNA-enzyme cleavage complex at 25 uM using supercoiled pBR322 DNA as substrate incubated for 6 mins measured after 30 mins by ethidium bromide staining based agarose gel electrophoresis method.
The target is the same in assay [11]. Nature of the assay: Poison activity at recombinant human topoisomerase-2alpha expressed in Saccharomyces cerevisiae assessed as inhibition of DNA religation using single-stranded DNA at 25 uM incubated for 6 mins by agarose gel electrophoresis method.
For assay [12] the target is unchanged. As to the kind of experiment: Inhibition of recombinant human topoisomerase-2alpha expressed in Saccharomyces cerevisiae assessed as increase in single-stranded DNA cleavage at 25 uM using supercoiled pBR322 DNA as substrate incubated for 6 mins measured after 30 mins by ethidium bromide staining based agarose gel electrophoresis method relative to etoposide.

Assay [13] addresses DNA topoisomerase 2-beta (Homo sapiens) (UniProt Q02880). Nature of the assay: Inhibition of recombinant human topoisomerase-2beta expressed in Saccharomyces cerevisiae assessed as increase in single-stranded DNA cleavage at 25 uM using supercoiled pBR322 DNA as substrate incubated for 6 mins measured after 30 mins by ethidium bromide staining based agarose gel electrophoresis method relative to etoposide.

Assay [14] has the same target. Nature of the assay: Poison activity at recombinant human topoisomerase-2beta expressed in Saccharomyces cerevisiae assessed as inhibition of DNA religation using single-stranded DNA at 25 uM incubated for 6 mins by agarose gel electrophoresis method.
The target of assay [15] is DNA topoisomerase 2-alpha (Homo sapiens) (UniProt P11388). The conditions noted are these: 100 uM.
Description: Inhibition of recombinant human topoisomerase-2alpha expressed in Saccharomyces cerevisiae assessed as stabilization of DNA-enzyme cleavage complex at 100 uM incubated for 10 mins followed by incubation in drug-free buffer by agarose gel electrophoresis method
The target is the same in assay [16]. As to conditions: 100 uM. This is another data set of the same source.
Description: Poison activity at recombinant human topoisomerase-2alpha expressed in Saccharomyces cerevisiae assessed as inhibition of DNA religation using single-stranded DNA at 100 uM incubated for 6 mins by agarose gel electrophoresis method
In assay [17] the target is DNA topoisomerase 2-beta (Homo sapiens) (UniProt Q02880). Nature of the assay: Inhibition of recombinant human topoisomerase-2beta expressed in Saccharomyces cerevisiae assessed as stabilization of DNA-enzyme cleavage complex at 50 uM incubated for 6 mins followed by incubation in drug-free buffer by agarose gel electrophoresis method.

Activity calls are given as the source filed them. The rule behind the calls is not given here.

On to `CNCCCNCCCCNCCCNCC(=O)N[C@@H]1c2cc3c(cc2[C@@H](c2cc(OC)c(O)c(OC)c2)[C@H]2C(=O)OC[C@@H]21)OCO3`, for which the inhibition result in [1], in assay [7], in assay [11] and in assay [14] was “Active” in each case. The fold change (FC) in [2] amounted to 8.36; in assay [3], 2.16; in [6], 6.51; in assay [9] it was 1.66; in assay [12], 1.37; in assay [13], 2.61. In addition, the result in assay [4] and in assay [10] was inactive. Moreover, the Activity in assay [5] was 7.5 µM; in assay [8], 13.2 µM.

On to `COc1cc([C@@H]2c3cc4c(cc3[C@@H](NC(=O)CNCCCNCCCCN)[C@H]3COC(=O)[C@H]23)OCO4)cc(OC)c1O`, for which the inhibition entry in assay [1], in assay [7], in [11] and in assay [14] was “Active” each time. The fold change (FC) in assay [2] was 7.69; in [3], 1.52; in assay [6], 6.8; in assay [9] it was 1.28; in assay [12], 1.14; in assay [13], 4.92. The outcome in [4] and in assay [10] was inactive. Also, the figures for the Activity in assay [5] and in [8] were 11 µM and 54.1 µM, respectively.

Turning to `COc1cc([C@@H]2c3cc4c(cc3[C@@H](O[C@@H]3O[C@@H]5CO[C@@H](C)O[C@H]5[C@H](O)[C@H]3O)[C@H]3COC(=O)[C@H]23)OCO4)cc(OC)c1O`, the inhibition entry in assay [15], in assay [16], in assay [17] and in [14] was “Active” each time. Moreover, the Activity in assay [5] and in assay [8] was above 100 µM in each case.

Take `COc1cc([C@@H]2c3cc4c(cc3[C@@H](NC(=O)CNCCCNCCCNCCCN)[C@H]3COC(=O)[C@H]23)OCO4)cc(OC)c1O`: the inhibition result in assay [1], in assay [7], in assay [11] and in assay [14] was “Active” throughout. Moreover, the fold change (FC) was 7.85 in [2]; 2.13 in assay [3]; 6.03 in assay [6]; 1.52 in [9]; 1.17 in assay [12]; 2.21 in [13]. In addition, the result in assay [4] and in assay [10] was inactive. The Activity was found to be 8.1 µM in assay [5] and 12.2 µM in assay [8].

Consider `COc1cc([C@@H]2c3cc4c(cc3[C@@H](NC(=O)CNCCCNCCCCNCCCN)[C@H]3COC(=O)[C@H]23)OCO4)cc(OC)c1O`, for which the inhibition entry in [1], in [7], in assay [11] and in [14] was “Active” each time. The fold change (FC) came out at 10.3 in assay [2]; 2.48 in [3]; 7.85 in assay [6]; 1.49 in [9]; 0.92 in [12]; 2.68 in assay [13]. Moreover, the outcome in assay [4] and in assay [10] was inactive. For the same compound, the Activity turned out to be 4.3 µM in assay [5] and 4.8 µM in assay [8].

In the case of `COc1cc([C@@H]2c3cc4c(cc3[C@@H](NC(=O)CNCCCNCCNCCCN)[C@H]3COC(=O)[C@H]23)OCO4)cc(OC)c1O`, the inhibition result in assay [1], in [7], in [11] and in [14] was “Active” each time. Also, the fold change (FC) in [2] worked out at 4.66; in [3], 1.93; in assay [6], 4.54; in assay [9], 1.38; in assay [12], 1.06; in [13], 4.27. Further, the outcome in assay [4] and in [10] was inactive. For the same compound, the results for the Activity in assay [5] and in assay [8] were 25.3 µM and 20.5 µM, respectively.

With `COc1cc([C@@H]2c3cc4c(cc3[C@@H](NC(=O)CNCCCOCCCCOCCCN)[C@H]3COC(=O)[C@H]23)OCO4)cc(OC)c1O`, the inhibition result in assay [1], in [7], in [11] and in assay [14] was “Active” in each case. Besides, the fold change (FC) in assay [2] amounted to 2.9; in [3], 0.9; in [6] it was 3.13; in [9] it was 0.88; in assay [12] it was 0.87; in [13], 3.63. Also, the outcome in [4] and in assay [10] was inactive. In addition, the Activity in [5] was 49.9 µM; in assay [8], 98.9 µM.
